Assay results reported in patent US6737383B1, “Herbicidal oxadiazolidines” (priority 1999, dated 2004).

Key:
rape = experiment: Test B pre/postemergence rape; type: in vivo, Brassica napus
Summary of the method: (§1)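 Response is a visual 0-to-10 score relative to untreated plants, where 0 means no effect and 10 means complete control, taken twelve to sixteen days after application. Treatments went onto soil at planting and onto foliage of 1- to 4-leaf plants, using a surfactant-containing non-phytotoxic solvent.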

wheat = experiment: Test B pre/postemergence wheat; type: in vivo, Triticum aestivum
Summary of the method: as §1

blackgrass = experiment: Test B pre/postemergence blackgrass; type: in vivo, Alopecurus myosuroides
Summary of the method: as §1

pigweed = experiment: Test B pre/postemergence pigweed; type: in vivo, Amaranthus retroflexus
Summary of the method: as §1

surinam grass = experiment: Test B pre/postemergence surinam grass; type: in vivo, Brachiaria decumbens
Summary of the method: as §1

morningglory = experiment: Test B pre/postemergence morningglory; type: in vivo, Ipomoea hederacea
Summary of the method: as §1

giant foxtail = experiment: Test B pre/postemergence giant foxtail; type: in vivo, Setaria faberii
Summary of the method: as §1

sugar beet = experiment: Test B pre/postemergence sugar beet; type: in vivo, Beta vulgaris
Summary of the method: as §1

cocklebur = experiment: Test B pre/postemergence cocklebur; type: in vivo, Xanthium strumarium
Summary of the method: as §1

corn = experiment: Test B pre/postemergence corn; type: in vivo, Zea mays
Summary of the method: as §1

bedstraw = experiment: Test B pre/postemergence bedstraw; type: in vivo, Galium aparine
Summary of the method: as §1

crabgrass = experiment: Test B pre/postemergence crabgrass; type: in vivo, Digitaria sanguinalis
Summary of the method: as §1

wild oat = experiment: Test B pre/postemergence wild oat; type: in vivo, Avena fatua
Summary of the method: as §1

soybean = experiment: Test B pre/postemergence soybean; type: in vivo, Glycine max
Summary of the method: as §1

velvetleaf = experiment: Test B pre/postemergence velvetleaf; type: in vivo, Abutilon theophrasti
Summary of the method: as §1

purple nutsedge = experiment: Test B pre/postemergence purple nutsedge; type: in vivo, Cyperus rotundus
Summary of the method: as §1

[1] = Postemergence, Rate 62 g/ha, scale 0 to 10, 0 is no effect, 10 is complete control
[2] = Postemergence, Rate 125 g/ha, scale of 0 to 10 where 0 is no effect and 10 is complete control
[3] = Preemergence, Rate 125 g/ha, scale of 0 to 10 where 0 is no effect and 10 is complete control
[4] = Preemergence, Rate 250 g/ha, scale 0 (no effect) to 10 (complete control)
[5] = Rate 62 g/ha, Preemergence, scale 0 to 10
[6] = Rate 250 g/ha, Postemergence, scale 0 to 10, 0 is no effect, 10 is complete control
[7] = Rate 500 g/ha, Postemergence, scale 0 to 10, 0 is no effect, 10 is complete control
[8] = Rate 500 g/ha, Preemergence, scale 0 to 10 (0 no effect, 10 complete control)

SMILES: CC(C)N(C(=O)n1oc(=O)n(C(C)C2=NOCC2)c1=O)c1ccc(Cl)cc1 (racemic) [Compound 759]
- Plant response rating, Rape (rape; [1]): 0
- Rape plant response rating (rape; [2]): 0
- Plant response rating, Rape (rape; [3]): 0
- Rape plant response rating (rape; [4]): 0
- Rape plant response rating (rape; [5]): 0
- Rape plant response rating (rape; [6]): 0
- Rape plant response rating (rape; [7]): 0
- Rape plant response rating (rape; [8]): 4
- Plant response rating, Wheat (wheat; [1]): 0
- Plant response rating, Wheat (wheat; [3]): 2
- Wheat plant response rating (wheat; [4]): 3
- Wheat plant response rating (wheat; [5]): 0
- Wheat plant response rating (wheat; [6]): 0
- Wheat plant response rating (wheat; [7]): 0
- Wheat plant response rating (wheat; [8]): 8
- Plant response rating, Blackgrass (blackgrass; [1]): 4
- Blackgrass plant response rating (blackgrass; [2]): 5
- Plant response rating, Blackgrass (blackgrass; [3]): 5
- Blackgrass plant response rating (blackgrass; [4]): 5
- Blackgrass plant response rating (blackgrass; [5]): 4
- Blackgrass plant response rating (blackgrass; [6]): 7
- Blackgrass plant response rating (blackgrass; [7]): 8
- Blackgrass plant response rating (blackgrass; [8]): 8
- Plant response rating, Redroot pigweed (pigweed; [1]): 0
- Redroot pigweed plant response rating (pigweed; [2]): 0
- Plant response rating, Redroot pigweed (pigweed; [3]): 2
- Redroot pigweed plant response rating (pigweed; [4]): 3
- Redroot pigweed plant response rating (pigweed; [5]): 0
- Redroot pigweed plant response rating (pigweed; [6]): 0
- Redroot pigweed plant response rating (pigweed; [7]): 4
- Redroot pigweed plant response rating (pigweed; [8]): 4
- Plant response rating, B. signalgrass (surinam grass; [1]): 0
- B. signalgrass plant response rating (surinam grass; [2]): 3
- B. signalgrass plant response rating (surinam grass; Preemergence, Rate 62 g/ha, scale of 0 to 10 where 0 is no effect and 10 is complete control): 3
- Plant response rating, B. signalgrass (surinam grass; [3]): 3
- B. signalgrass plant response rating (surinam grass; [4]): 8
- B. signalgrass plant response rating (surinam grass; [6]): 6
- B. signalgrass plant response rating (surinam grass; [7]): 7
- B. signalgrass plant response rating (surinam grass; [8]): 8
- Plant response rating, Morningglory (morningglory; [1]): 3
- Morningglory plant response rating (morningglory; [2]): 3
- Plant response rating, Morningglory (morningglory; [3]): 0
- Morningglory plant response rating (morningglory; [4]): 0
- Morningglory plant response rating (morningglory; [5]): 0
- Morningglory plant response rating (morningglory; [6]): 3
- Morningglory plant response rating (morningglory; [7]): 4
- Morningglory plant response rating (morningglory; [8]): 0
- Plant response rating, Giant foxtail (giant foxtail; [1]): 3
- Giant foxtail plant response rating (giant foxtail; [2]): 5
- Plant response rating, Giant foxtail (giant foxtail; [3]): 9
- Giant foxtail plant response rating (giant foxtail; [4]): 10
- Giant foxtail plant response rating (giant foxtail; [5]): 9
- Giant foxtail plant response rating (giant foxtail; [6]): 8
- Giant foxtail plant response rating (giant foxtail; [7]): 8
- Giant foxtail plant response rating (giant foxtail; [8]): 10
- Plant response rating, Sugarbeets (sugar beet; [1]): 0
- Plant response rating, Sugarbeets (sugar beet; [3]): 0
- Sugarbeets plant response rating (sugar beet; [4]): 4
- Sugarbeets plant response rating (sugar beet; [5]): 0
- Sugarbeets plant response rating (sugar beet; [6]): 0
- Sugarbeets plant response rating (sugar beet; [7]): 0
- Sugarbeets plant response rating (sugar beet; [8]): 5
- Plant response rating, Cocklebur (cocklebur; [1]): 0
- Cocklebur plant response rating (cocklebur; [2]): 0
- Plant response rating, Cocklebur (cocklebur; [3]): 0
- Cocklebur plant response rating (cocklebur; [4]): 0
- Cocklebur plant response rating (cocklebur; [5]): 0
- Cocklebur plant response rating (cocklebur; [6]): 1
- Cocklebur plant response rating (cocklebur; [7]): 2
- Cocklebur plant response rating (cocklebur; [8]): 0
- Plant response rating, Corn (corn; [1]): 0
- Corn plant response rating (corn; [2]): 0
- Plant response rating, Corn (corn; [3]): 0
- Corn plant response rating (corn; [4]): 0
- Corn plant response rating (corn; [5]): 0
- Corn plant response rating (corn; [6]): 0
- Corn plant response rating (corn; [7]): 0
- Corn plant response rating (corn; [8]): 0
- Plant response rating, Bedstraw (bedstraw; [1]): 0
- Plant response rating, Bedstraw (bedstraw; [3]): 0
- Bedstraw plant response rating (bedstraw; [4]): 0
- Bedstraw plant response rating (bedstraw; [5]): 0
- Bedstraw plant response rating (bedstraw; [8]): 0
- Plant response rating, Crabgrass (crabgrass; [1]): 2
- Crabgrass plant response rating (crabgrass; [2]): 4
- Plant response rating, Crabgrass (crabgrass; [3]): 7
- Crabgrass plant response rating (crabgrass; [4]): 8
- Crabgrass plant response rating (crabgrass; [5]): 7
- Crabgrass plant response rating (crabgrass; [6]): 8
- Crabgrass plant response rating (crabgrass; [7]): 8
- Crabgrass plant response rating (crabgrass; [8]): 9
- Plant response rating, Wild oats (wild oat; [1]): 0
- Plant response rating, Wild oats (wild oat; [3]): 4
- Wild oats plant response rating (wild oat; [4]): 5
- Wild oats plant response rating (wild oat; [5]): 0
- Wild oats plant response rating (wild oat; [6]): 2
- Wild oats plant response rating (wild oat; [7]): 3
- Wild oats plant response rating (wild oat; [8]): 8
- Plant response rating, Soybean (soybean; [1]): 3
- Plant response rating, Soybean (soybean; [3]): 0
- Soybean plant response rating (soybean; [4]): 0
- Soybean plant response rating (soybean; [5]): 0
- Soybean plant response rating (soybean; [6]): 3
- Soybean plant response rating (soybean; [7]): 3
- Soybean plant response rating (soybean; [8]): 0
- Plant response rating, Velvetleaf (velvetleaf; [1]): 2
- Plant response rating, Velvetleaf (velvetleaf; [3]): 0
- Velvetleaf plant response rating (velvetleaf; [4]): 0
- Velvetleaf plant response rating (velvetleaf; [5]): 0
- Velvetleaf plant response rating (velvetleaf; [6]): 6
- Velvetleaf plant response rating (velvetleaf; [7]): 6
- Velvetleaf plant response rating (velvetleaf; [8]): 0
- Plant response rating, Nutsedge (purple nutsedge; [1]): 0
- Nutsedge plant response rating (purple nutsedge; [2]): 0
- Plant response rating, Nutsedge (purple nutsedge; [3]): 0
- Nutsedge plant response rating (purple nutsedge; [4]): 0
- Nutsedge plant response rating (purple nutsedge; [5]): 0
- Nutsedge plant response rating (purple nutsedge; [6]): 0
- Nutsedge plant response rating (purple nutsedge; [7]): 0
- Nutsedge plant response rating (purple nutsedge; [8]): 0
